One experiment addresses MCL-1 (Homo sapiens, UniProt Q07820). The experiment is described as follows: Protein-protein interaction assay MCL-1/Noxa BH3 peptide (MCL-1 assay), TR-FRET. In kind it is binding. The settings on record: MBP-MCL-1 / Noxa BH3-derived peptide, median. The method, boiled down:
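Steady-state competition, MCL-1/Noxa BH3, TR-FRET readout; 1 nM MBP-MCL-1, 11-point dose series 0.1 nM–20 μM; overnight 4 °C equilibration; 4-parameter IC50.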

Experiment [1] deals with SUDHL5. In words: Induction of caspase-3/7 activity (Caspase-Glo 3/7), SUDHL5. In kind it is cell-based. The settings on record: Homo sapiens, SU-DHL-5, 3 h, caspase-3/7 induction, SUDHL5 cells, 3 h treatment; median. The gist of the method: (§1)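 A 3 h, 37 °C compound incubation precedes the Caspase-Glo 3/7 read. After subtracting medium-only signal, EC50s are fitted against the reference compound's maximal caspase induction.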

Experiment [2] deals with SUDHL10. In words: Induction of caspase-3/7 activity (Caspase-Glo 3/7), SUDHL10. Format: cell-based. The settings on record: Homo sapiens, SU-DHL10, 3 h, caspase-3/7 induction, SUDHL10 cells, 3 h treatment; median. The method, boiled down: as §1
The test system of experiment [3] is SUDHL5. The experiment is described as follows: Anti-proliferative effect (CellTiter-Glo, 72 h), SUDHL5. The settings on record: Homo sapiens, SU-DHL-5, 72 h, SUDHL5 cells, antiproliferation, 72 h incubation, median, read-out: Antiproli SUDHL5 [M] (median). Format: cell-based. The method, boiled down: (§2)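 Plate cells alongside a separate day 0 reference plate. Read the reference plate at once with CellTiter-Glo. Incubate treated cells 72 h at 37 °C, then read them the same way by luminescence.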

In experiment [4] the test system is SUDHL10. The experiment is described as follows: Anti-proliferative effect (CellTiter-Glo, 72 h), SUDHL10. Format: cell-based. The settings on record: Homo sapiens, SU-DHL10, 72 h, SUDHL10 cells, antiproliferation, 72 h incubation, median, read-out: Antiproli SUDHL10 [M] (median). The method, boiled down: as §2
The subject of another experiment is A2780. The experiment is described as follows: Anti-proliferative effect (CellTiter-Glo, 72 h), A2780. In kind it is cell-based. The settings on record: A2780 cells, median, read-out: IC50 antiproliferation assay A2780 [M] (median). The gist of the method:
as §2

Experiment [5] has as its system SUDHL5. The experiment is described as follows: Induction of cytotoxicity (CellTiter-Glo, 5 h), SUDHL5. The settings on record: Homo sapiens, SU-DHL-5, 5 h, read-out: Cytotox SUDHL5 [M] (median), SUDHL5 cells, cytotoxicity induction, CellTiter-Glo, 5 h incubation, median.
The subject of experiment [6] is SUDHL10. The experiment is described as follows: Induction of cytotoxicity (CellTiter-Glo, 5 h), SUDHL10. The settings on record: Homo sapiens, SU-DHL10, 5 h, read-out: Cytotox SUDHL10 [M] (median), SUDHL10 cells, cytotoxicity induction, CellTiter-Glo, 5 h incubation, median.

Each structure is given as a SMILES string. Structures can show the parent of a compound that is named as a salt. Where two headings read alike, the source gives them in different places.

MCL-1, sequence (Q07820 whole entry): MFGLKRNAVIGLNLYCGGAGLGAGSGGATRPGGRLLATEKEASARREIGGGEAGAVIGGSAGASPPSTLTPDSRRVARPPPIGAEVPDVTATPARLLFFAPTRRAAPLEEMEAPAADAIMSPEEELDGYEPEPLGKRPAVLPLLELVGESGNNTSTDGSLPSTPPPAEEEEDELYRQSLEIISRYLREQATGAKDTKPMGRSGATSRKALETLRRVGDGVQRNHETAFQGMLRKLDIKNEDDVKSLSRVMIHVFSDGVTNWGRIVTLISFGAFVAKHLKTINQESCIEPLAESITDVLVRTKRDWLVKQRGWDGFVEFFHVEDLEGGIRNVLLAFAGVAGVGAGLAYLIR

Turning to `COc1c2c(nn1C)COCCCCn1c(C(=O)O)c(CCCOc3cccc4ccccc34)c3cccc-2c31` (racemic) [Example 207, (rac)-3-methoxy-2-methyl-7-[3-(naphthalen-1-yloxy)propyl]-2,10,11,12,13,15-hexahydropyrazolo[4′,3′:9,10][1,6]oxazacycloundecino[8,7,6-hi]indole-8-carboxylate], the IC50 came to 0.00681 µM against MCL-1; 5.28e-06 M with SUDHL5 [3]; 7.76e-06 M in the experiment with SUDHL10 [4]; 2.47e-05 M in the experiment with A2780 (Homo sapiens, A2780, 72 h); 4.45e-06 M in the experiment with SUDHL5 [5]; 1.08e-05 M in the experiment with SUDHL10 [6]. The results for the EC50 in the experiment on SUDHL5 [1] and with SUDHL10 [2] were 4.85 µM and 11.4 µM, respectively.
Turning to `Cn1nc(COC2CC2)c2c1COCCCCn1c(C(=O)O)c(CCCOc3cccc4ccccc34)c3cccc-2c31` (racemic) [Example 213, (rac)-3-[(cyclopropyloxy)methyl]-1-methyl-7-[3-(naphthalen-1-yloxy)propyl]-1,10,11,12,13,15-hexahydropyrazolo[4′3′:9,10][1,6]oxazacycloundecino[8,7,6,6-hi]indole-8-carboxylic Acid], the IC50 was 0.0134 µM against MCL-1; 2.49e-06 M in the experiment with SUDHL5 [3]; 5.12e-06 M in the experiment on SUDHL10 [4]; 2.91e-05 M in the experiment on A2780 (Homo sapiens, A2780, 72 h); greater than 3.3e-05 M in the experiment with SUDHL5 [5]; greater than 3.3e-05 M in the experiment on SUDHL10 [6]. Further, the EC50 with SUDHL5 [1] and in the experiment on SUDHL10 [2] was greater than 33 µM in each case.
In the case of `Cn1nc(CC(F)(F)F)c2c1COCCCCn1c(C(=O)O)c(CCCOc3cccc4ccccc34)c3cccc-2c31` (racemic) [Example 219, (rac)-1-methyl-7-[3-(naphthalen-1-yloxy)propyl]-3-(2,2,2-trifluoroethyl)-1,10,11,12,13,15-hexahydropyrazolo[4′,3′:9,10][1,6]oxazacycloundecino[8,7,6-hi]indole-8-carboxylic Acid], the IC50 at MCL-1 is 0.014 µM; in the experiment on SUDHL5 [3] it was 9.95e-06 M; in the experiment on SUDHL10 [4] it was 1.36e-05 M; in the experiment with A2780 (Homo sapiens, A2780, 72 h) it was greater than 3.3e-05 M; in the experiment with SUDHL5 [5], 9.71e-06 M; in the experiment on SUDHL10 [6] it was 2.47e-05 M. Also, the half-maximal effective concentration (EC50) with SUDHL5 [1] is 12.8 µM; with SUDHL10 [2], greater than 33 µM.
In the case of `Cn1ccnc1COCc1nn(C)c2c1-c1cccc3c(CCCOc4cccc5ccccc45)c(C(=O)O)n(c13)CCCCOC2` (racemic) [Example 231, (rac)-1-methyl-3-{[(1-methyl-1H-imidazol-2-yl)methoxyl]methyl}-7-[3-(naphthalen-1-yloxy)propyl]-1,10,11,12,13,15-hexahydropyrazolo[4′,3′:9,10][1,6]oxazacycloundecino[8,7,6-hi]indole-8-carboxylic Acid], the IC50 is 0.0262 µM at MCL-1; 8.1e-06 M in the experiment on SUDHL5 [3]; 1.14e-05 M with SUDHL10 [4]; greater than 3.3e-05 M in the experiment with A2780 (Homo sapiens, A2780, 72 h); 1.33e-05 M with SUDHL5 [5]; 1.6e-05 M in the experiment with SUDHL10 [6]. The EC50 was 17.3 µM in the experiment with SUDHL5 [1] and 16.1 µM in the experiment with SUDHL10 [2].
Take `Cn1nc2c(c1OC(F)F)-c1cccc3c(CCCOc4cccc5ccccc45)c(C(=O)O)n(c13)CCCCOC2` (racemic) [Example 234, (rac)-3-(difluoromethoxy)-2-methyl-7-[3-(naphthalen-1-yloxy)propyl]-2,10,11,12,13,15-hexahydropyrazolo[4′,3′:9,10][1,6]oxazacycloundecino[8,7,6-hi]indole-8-carboxylic Acid]: the IC50 was 0.0139 µM on MCL-1; 3.15e-05 M in the experiment with SUDHL5 [3]; 1.98e-05 M in the experiment on SUDHL10 [4]; 3.04e-05 M in the experiment with A2780 (Homo sapiens, A2780, 72 h); 2.71e-05 M in the experiment with SUDHL5 [5]; greater than 3.3e-05 M in the experiment with SUDHL10 [6]. Moreover, the concentration giving a half-maximal response (EC50) was 30.1 µM with SUDHL5 [1] and 31.6 µM with SUDHL10 [2].
Take `Cc1nn(CCN(C)C)c2c1-c1cccc3c(CCCOc4cccc5ccccc45)c(C(=O)O)n(c13)CCCCOC2` (racemic) [Example 244, (rac)-1-[2-(dimethylamino)ethyl]-3-methyl-7-[3-(naphthalen-1-yloxy)propyl]-1,10,11,12,13,15-hexahydropyrazolo[4′,3′:9,10][1,6]oxazacycloundecino[8,7,6-hi]indole-8-carboxylic Acid Trifluoroacetic Acid Salt]: the IC50 is 0.00664 µM on MCL-1; 5.23e-06 M in the experiment with SUDHL5 [3]; 5e-06 M in the experiment on SUDHL10 [4]; 1.84e-05 M with A2780 (Homo sapiens, A2780, 72 h); 3.2e-06 M in the experiment on SUDHL5 [5]; 6.6e-06 M in the experiment on SUDHL10 [6]. In addition, the concentration for a half-maximal effect (EC50) amounted to 2.69 µM in the experiment with SUDHL5 [1] and 6.42 µM in the experiment on SUDHL10 [2].
Take `O=C(O)c1c(CCCOc2cccc3ccccc23)c2cccc3c2n1CCCCOCc1nn2c(c1-3)OCCC2` (racemic) [Example 247, (rac)-1-[3-(naphthalen-1-yloxy)propyl]-4,5,6,7,13,14-hexahydro-9H,12H-[1,3]oxazino[3″,2″: 1′,5′]pyrazolo[4′,3′:9,10][1,6]oxazacycloundecino[8,7,6-hi]indole-2-carboxylic Acid]: the IC50 on MCL-1 was 0.00615 µM; in the experiment with SUDHL5 [3], 5.26e-06 M; in the experiment on SUDHL10 [4], 9.3e-06 M; in the experiment on A2780 it was greater than 3.3e-05 M; in the experiment on A2780 (Homo sapiens, A2780, 72 h), 3.04e-05 M; in the experiment on SUDHL5 [5] it was 6.79e-06 M. In addition, the IC50 in the experiment on SUDHL10 [6] is 1.9e-05 M. For the same molecule, the concentration for a half-maximal effect (EC50) in the experiment on SUDHL5 [1] is 5.21 µM; with SUDHL10 [2], 17.3 µM.
With `O=C(O)c1c(CCCOc2cccc3ccccc23)c2cccc3c2n1CCCCOCc1nn2c(c1-3)COCC2` (racemic) [Example 250, (rac)-1-[3-(naphthalen-1-yloxy)propyl]-4,5,6,7,12,13-hexahydro-9H,15H-[1,4]oxazino[4″,3″:1′,5′]pyrazolo[4′,3′:9,10][1,6]oxazacycloundecino[8,7,6-hi]indole-2-carboxylic Acid], the IC50 on MCL-1 is 0.00788 µM; in the experiment on SUDHL5 [3] it was 9.3e-06 M; in the experiment with SUDHL10 [4], 9.7e-06 M; in the experiment on A2780, greater than 3.3e-05 M; with A2780 (Homo sapiens, A2780, 72 h), 2.29e-05 M; in the experiment on SUDHL5 [5] it was 1.33e-05 M. In the experiment with SUDHL10 [6], the IC50 is 2.18e-05 M. Further, the 50% effective concentration (EC50) was 10.9 µM in the experiment on SUDHL5 [1] and 22 µM with SUDHL10 [2].
For `Cc1ccc2c(C(C)CCOc3cccc4ccccc34)c(C(=O)O)n3c2c1-c1c(C)nn(C)c1COCCCC3` (racemic) [Example 256, 1,3,4-trimethyl-7-[4-(naphthalen-1-yloxy)butan-2-yl]-1,10,11,12,13,15-hexahydropyrazolo[4′,3′:9,10][1,6]oxazacycloundecino[8,7,6-hi]indole-8-carboxylic Acid], the IC50 against MCL-1 is 0.0425 µM; in the experiment with SUDHL5 [3], 1.5e-05 M; in the experiment on SUDHL10 [4], 9.2e-06 M; in the experiment with A2780 (Homo sapiens, A2780, 72 h), 2.03e-05 M; in the experiment with SUDHL5 [5], 2.29e-05 M; in the experiment with SUDHL10 [6], greater than 3.3e-05 M. Also, the EC50 in the experiment with SUDHL5 [1] and in the experiment with SUDHL10 [2] was greater than 33 µM each time.
For the molecule `CCc1nn(C)c2c1-c1c(C)ccc3c(C(C)CCOc4cccc5cc(F)ccc45)c(C(=O)O)n(c13)CCCCOC2` (racemic) [Example 261, 3-ethyl-7-{4-[(6-fluoronaphthalen-1-yl)oxy]butan-2-yl}-1,4-dimethyl-1,10,11,12,13,15-hexahydropyrazolo[4′,3′:9,10][1,6]oxazacycloundecino[8,7,6-hi]indole-8-carboxylic Acid], the IC50 against MCL-1 was 0.00373 µM; in the experiment on SUDHL5 [3], 1.17e-06 M; in the experiment with SUDHL10 [4] it was 4.66e-06 M; in the experiment on A2780 (Homo sapiens, A2780, 72 h), 1.85e-05 M; with SUDHL5 [5], 2.02e-06 M; with SUDHL10 [6], 3.8e-06 M. The EC50 with SUDHL5 [1] was 1.77 µM; in the experiment on SUDHL10 [2], 3.52 µM.

(Values after patent US10981932B2, “Macrocyclic indole derivatives” (Bayer Aktiengesellschaft, priority 2016, dated 2021).)
